Results: US4172148A, “Ruminant feeds containing trichloroethyl esters of essential amino acids” (E. R. Squibb & Sons, Inc., priority 1978, dated 1979)

Tested on: growing lambs
Assay: body weight gain and feed efficiency of growing lambs (Examples 9-11)
Format: in vivo, lambs (sheep)
Procedure: A test was conducted to determine if feeding L-phenylalanine, 2,2,2-trichloroethyl ester to growing lambs was effective in improving growth and feed efficiency. Wether and ewe lambs were divided into groups of 30 lambs each. They were acclimated to their pens for 2 weeks prior to treatment.
The feed supplied to the animals had the following composition
The test compound in an amount of 0.0055% (50 g/ton) was admixed with the above feed composition.
Body weights and feed consumption were recorded at 0, 2, 4 and 6 weeks. Feed efficiencies were calculated.
The test procedure of Example 9 was followed to test the growth effect and feed efficiency of glycine 2,2,2-trichloroethyl ester on growing lambs. The feed composition of Example 9 was used but contained glycine 2,2,2-trichloroethyl ester in an amount of 0.0044% (40 g/ton). There were 44 lambs in the control group receiving the feed composition without additive and 42 lambs receiving the feed composition containing the amino acid ester.
The test procedure of Example 9 was followed to test the growth effect and feed efficiency of L-phenylalanine 2,2,2-trichloroethyl ester on growing lambs. The feed composition of Example 9 was used but contained 0.0088% (80 g/ton) of this amino acid ester. There were 59 lambs in the control group fed the feed without additive and 58 lambs in the group fed the feed composition containing the test compound.

In the case of Br.N[C@@H](Cc1ccccc1)C(=O)OCC(Cl)(Cl)Cl [L-Phenylalanine 2,2,2-trichloroethyl ester, hydrobromide], the Body weight gain (0.0055% (50 g/ton) in feed, 0-2 wks., control 2.47) is reported as 2.97 kg, the Body weight gain (0.0055% (50 g/ton) in feed, 0-4 wks., control 5.80) is reported as 5.82 kg and the Feed efficiency (0.0055% (50 g/ton) in feed, 0-6 wks., control 0.190) is reported as 0.196 gain/unit of feed. The Body weight gain (0.0055% (50 g/ton) in feed, 0-6 wks., control 8.51) was 9.08 kg, the “effect on feed efficiency (in words)” value (0.0055% (50 g/ton) in the feed) was “improving feed efficiency” and the “effect on gains (in words)” value (0.0055% (50 g/ton) in the feed) was “effective in increasing gains”. The Weight gain (0.0088% (80 g/ton) in feed, 0-2 wks, control 1.50) was 1.49 kg, the Weight gain (0.0088% (80 g/ton) in feed, 0-4 wks, control 4.44) was 4.63 kg and the Feed efficiency (0.0088% (80 g/ton) in feed, 0-6 wks, control 0.160) was 0.168 gain/feed. For the same molecule, the Weight gain (0.0088% (80 g/ton) in feed, 0-6 wks, control 7.56) was 7.81 kg.
